For four compounds, IC50, Inhibition and Inhibition % results are on record in patent US20210087159A1, “TETRAHYDROCANNABINOLIC- CA[…] DERIVATIVES AND USES THEREOF” (AL&AM […]., priority 2018, published 2021).

By Inhibition is commonly meant the change of the read-out against control, counted positive when it falls. A high value points to strong suppression.

pIC50: −log10 of the molar value. Read-outs that look alike come from different tables or passages of the source.

What all share (test): CellTiter-Glo cell viability assay, cancer cell cytotoxicity/anti-proliferation panel (Chempartner)
Common to all, as to assay type: cell-based

Test [1] concerns SK-HEP-1, liver adenocarcinoma. Conditions: for pIC50: Homo sapiens, SK-HEP1, 72 h, read-out: IC50 (absolute IC50); for Inhibition: SK-HEP-1, 72 hours, compounds 10 μM starting, STS 2 μM starting, 10-pt, 3-fold dilution. Here is the method: (§1) In this study, the biological activity of certain compounds of the present invention on cancer cell cytotoxicity/anti-proliferation panel was tested using the CellTiter-Glo® cell viability assay. The compounds were dissolved in DMSO to make 10 mM solution.
(§2) The cell lines tested were all selected from the Chempartner's cell collection and included: Caco-2 ATCC colon adenocarcinoma; TE-6 RIKEN esophagus, carcinoma; PC-3 ATCC prostate adenocarcinoma; T47D, breast ductal carcinoma; U251, brain human glioma; A549, lung carcinoma; OMP-2, multiple myeloma; SK-HEP-1, liver adenocarcinoma; PANC-1, pancreas ductal carcinoma; AsPC-1, pancreas, ductal carcinoma; and U-87 MG, brain glioblastoma.
(§3) For the assays described herein, absolute inhibition of cells growth (%) and absolute IC50 (Abs IC50; […]) were used to derive a value that can be used to compare results within and across runs in the same assay, as well as between different assays.
(§4) • a. Prepare complete medium: Add FBS and appropriate additives according to the information sheet provided by the vendor. Mix gently. • b. Check the cell name and complete medium and passage number marked on the flask. For adherent cell lines, refer to c to k. For suspension cell lines, refer to g to k. • c. Remove and discard culture medium using a vacuum pump. • d. Briefly rinse the cell layer with 0.25% (w/v) trypsin-0.038% (w/v) EDTA solution to remove all traces of serum that contains trypsin inhibitor. • e. Add 3.0 ml of trypsin-EDTA solution to flask and observe cells under an inverted microscope until cell layer is dispersed. • f. Add 8.0 ml of complete growth medium and aspirate cells by gently pipetting. • g. Transfer the cell suspension to a centrifuge tube and centrifuge at 800-1000 rpm for 3-5 minutes. • h. Discard the supernatant using a vacuum pump. • i. Add appropriate volume of complete medium. Suspend the cell pellet by gently pipetting. • j. Count the cell numbers with Vi-cell XR and adjust cells to appropriate density. • k. Add 100 μL of cell suspension to 96-well opaque-walled clear bottom plates according to the planned plate layout and place the plates in the CO2 incubator overnight. • l. Plate layout:
(§5) • Plate preparation of testing articles. 10 mM stock solution of each one of the compounds (provided as powder) was prepared in DMSO. […] 0.5 μL of each of the diluted compounds was transferred to the wells containing 100 μL of the culture medium. The total dilution was 200 fold. Cells were incubated with the compounds for 72 hours at 5% CO2, 37° C.
(§6) • Thaw the CellTiter-Glo buffer and equilibrate to room temperature prior to use. • Equilibrate the lyophilized CellTiter-Glo substrate to room temperature prior to use. • Transfer the appropriate volume of CellTiter-Glo buffer into the amber bottle containing CellTiter-Glo substrate to reconstitute the lyophilized enzyme/substrate mixture. This forms the CellTiter-Glo reagent. • Mix by gently vortexing, swirling or by inverting the contents to obtain a homogeneous solution. The CellTiter-Glo substrate should go into solution easily in less than one minute.
(§7) • Observe the cell morphology under an inverted microscope after corresponding treatment. • Equilibrate the plate and its contents to room temperature for approximately 30 minutes. • Add 100 μL of CellTiter-Glo reagent to the assay plate by Multidrop Combi instrument. • Mix contents for 10 minutes on an orbital shaker to induce cell lysis. • Allow the plate to incubate at room temperature for 10 minutes to stabilize luminescent signal. • Paste the clear bottom with white back seal and record luminescence with Enspire. The settings should be: Luminescence, measurement time 0.1 ms.
(§8) Inhibition (%) and absolute IC50 (μM) of each compound was calculated with XLFit curve fitting software that is compatible to Activity Base.

Test [2] has as its system OMP-2, multiple myeloma. Conditions: for pIC50: 72 h, read-out: IC50 (absolute IC50); for Inhibition: OMP-2, 72 hours, compounds 10 μM starting, STS 2 μM starting, 10-pt, 3-fold dilution. Here is the method:
as §1, §2, §3, §4, §5, §6, §7, §8

For test [3], the system named is U-87 MG, brain glioblastoma. The following applies: for Inhibition: 72 hours, compounds 10 μM starting, STS 2 μM starting, 10-pt, 3-fold dilution; for pIC50: Homo sapiens, 72 h, read-out: IC50 (absolute IC50). As for the experimental part: as §1, §2, §3, §4, §5, §6, §7, §8
Test [4] concerns T47D, breast ductal carcinoma. Conditions: for pIC50: Homo sapiens; for Inhibition: compounds 10 μM starting, STS 2 μM starting. As for the experimental part: as §1, §2, §3, §4, §5, §6, §7, §8
Test [5] has as its system PANC-1, pancreas ductal carcinoma. Conditions: for pIC50: Homo sapiens, PANC-1, 72 h, read-out: IC50 (absolute IC50); for Inhibition: PANC-1, 72 hours, compounds 10 μM starting, STS 2 μM starting, 10-pt, 3-fold dilution. As for the experimental part:
as §1, §2, §3, §4, §5, §6, §7, §8

Test [6] relates to A549, lung carcinoma. The following applies: for Inhibition: A549, 72 hours, compounds 10 μM starting, STS 2 μM starting, 10-pt, 3-fold dilution; for pIC50: Homo sapiens, A549, 72 h, read-out: IC50 (absolute IC50). Here is the method: as §1, §2, §3, §4, §5, §6, §7, §8
[7] abbreviates: T47D, 72 h, read-out: IC50 (absolute IC50).
Where [8] appears, read: T47D, 72 hours, 10-pt, 3-fold dilution.

As for `CCCCCc1cc2c(c(O)c1C(=O)NCCN(C)C)[C@@H]1C=C(C)CC[C@H]1C(C)(C)O2` [Ia6, (6aR,0aR)—N-(2-(dimethylamino)ethyl)-1-hydroxy-6,6,9-trimethyl-3-pentyl-6a,7,8,10a-tetrahydro-6H-benzo[c]chromene-2-carboxamide], the pIC50 in test [1] was less than 5.00; in test [2], less than 5.00; in test [3] it was less than 5.00; in test [4] (setting [7]), 5.22; in test [5], 5.22; in test [6] it was 5.13. Further, the Inhibition in test [1] came to 49.38%; in test [2] it was 47.73%; in test [3], 13.79%; in test [4] (setting [8]), 84.19%; in test [5] it was 90.10%; in test [6], 66.67%.

Consider `CCCCCc1cc2c(c(O)c1C(=O)NCCCN1CCOCC1)[C@@H]1C=C(C)CC[C@H]1C(C)(C)O2` [Ia9, (6aR,0aR)-1-hydroxy-6,6,9-trimethyl-N-(3-morpholinopropyl)-3-pentyl-6a,7,8,10a-tetrahydro-6H-benzo[c]chromene-2-carboxamide], for which the pIC50 in test [1] was 5.27; in test [2], 5.17; in test [3] it was less than 5.00; in test [4] (setting [7]), 5.26; in test [5], 5.26; in test [6] it was 5.25. Also, the Inhibition in test [1] is recorded as 78.20%; in test [2], 76.40%; in test [3] it was 19.84%; in test [4] (setting [8]), 97.90%; in test [5], 92.19%; in test [6], 77.08%.

As for `C=C(C)[C@@H]1CCC(C)=C[C@H]1c1c(O)cc(CCCCC)c(C(=O)NCCCN2CCOCC2)c1O` [Ia28, (1′R,2′R)-2,6-dihydroxy-5′-methyl-N-(3-morpholinopropyl)-4-pentyl-2′-(prop-1-en-2-yl)-1′,2′,3′,4′-tetrahydro-[1,1′-biphenyl]-3-carboxamide], the pIC50 in test [4] (Table 5, T47D cells, 72 hours, read-out: AbsIC50) is less than 5.00. This compound also had an Inhibition % in test [4] (Table 5, T47D cells, 72 hours, 10 μM starting, 10-pt, 3-fold dilution) of 14.85%.

In the case of `CCCCCc1cc2c(c(O)c1C(=O)O)[C@@H]1C=C(C)CC[C@H]1C(C)(C)O2` [THCA, tetrahydrocannabinolic acid, reference compound], the pIC50 in test [1], in test [2], in test [3], in test [4] (setting [7]), in test [5] and in test [6] was less than 5.00 in each case. Further, the Inhibition in test [1] is listed as 16.52%; in test [2], 5.94%; in test [3], 10.52%; in test [4] (setting [8]), 18.20%; in test [5], 15.20%; in test [6], 9.30%.
